Experimental data from the NIST ThermoML archive (doi:10.1016/j.fluid.2015.09.035).
± gives the expanded uncertainty stated by the source.

Test: excess molar enthalpy (molar enthalpy of mixing); xn = mol fraction of the nth substance listed
Settings: Liquid, Flow calorimetry

SMILES: C1CCCCC1 [cyclohexane] + CCCC(C)O
- excess molar enthalpy (298.15 K, x2 = 0): 0 ± 0.000239 kcal/mol
- excess molar enthalpy (313.15 K, x2 = 0): 0 ± 0.000239 kcal/mol

SMILES: CCCC(C)O (centres undefined) [pentan-2-ol] + C1CCCCC1
- excess molar enthalpy (298.15 K, x1 = 0.0496): 0.105 ± 0.00143 kcal/mol
- excess molar enthalpy (298.15 K, x1 = 0.1013): 0.144 ± 0.00186 kcal/mol
- excess molar enthalpy (298.15 K, x1 = 0.151): 0.169 ± 0.00217 kcal/mol
- excess molar enthalpy (298.15 K, x1 = 0.2008): 0.189 ± 0.00239 kcal/mol
- excess molar enthalpy (298.15 K, x1 = 0.2506): 0.205 ± 0.00263 kcal/mol
- excess molar enthalpy (298.15 K, x1 = 0.3005): 0.218 ± 0.00287 kcal/mol
- excess molar enthalpy (298.15 K, x1 = 0.3503): 0.228 ± 0.00287 kcal/mol
- excess molar enthalpy (298.15 K, x1 = 0.4001): 0.232 ± 0.00287 kcal/mol
- excess molar enthalpy (298.15 K, x1 = 0.4499): 0.234 ± 0.00287 kcal/mol
- excess molar enthalpy (298.15 K, x1 = 0.5002): 0.228 ± 0.00287 kcal/mol
- excess molar enthalpy (298.15 K, x1 = 0.5499): 0.22 ± 0.00287 kcal/mol
- excess molar enthalpy (298.15 K, x1 = 0.6002): 0.207 ± 0.00263 kcal/mol
- excess molar enthalpy (298.15 K, x1 = 0.6501): 0.187 ± 0.00239 kcal/mol
- excess molar enthalpy (298.15 K, x1 = 0.7002): 0.166 ± 0.00213 kcal/mol
- excess molar enthalpy (298.15 K, x1 = 0.7504): 0.146 ± 0.00189 kcal/mol
- excess molar enthalpy (298.15 K, x1 = 0.8007): 0.121 ± 0.0016 kcal/mol
- excess molar enthalpy (298.15 K, x1 = 0.8509): 0.0932 ± 0.00124 kcal/mol
- excess molar enthalpy (298.15 K, x1 = 0.9013): 0.0625 ± 0.000884 kcal/mol
- excess molar enthalpy (298.15 K, x1 = 0.9496): 0.0302 ± 0.000502 kcal/mol
- excess molar enthalpy (298.15 K, x1 = 1): 0 ± 0.000239 kcal/mol
- excess molar enthalpy (313.15 K, x1 = 0.0496): 0.133 ± 0.00177 kcal/mol
- excess molar enthalpy (313.15 K, x1 = 0.1013): 0.181 ± 0.00232 kcal/mol
- excess molar enthalpy (313.15 K, x1 = 0.151): 0.208 ± 0.00263 kcal/mol
- excess molar enthalpy (313.15 K, x1 = 0.2008): 0.229 ± 0.00287 kcal/mol
- excess molar enthalpy (313.15 K, x1 = 0.2506): 0.246 ± 0.00311 kcal/mol
- excess molar enthalpy (313.15 K, x1 = 0.3003): 0.258 ± 0.00335 kcal/mol
- excess molar enthalpy (313.15 K, x1 = 0.3502): 0.265 ± 0.00335 kcal/mol
- excess molar enthalpy (313.15 K, x1 = 0.4002): 0.265 ± 0.00335 kcal/mol
- excess molar enthalpy (313.15 K, x1 = 0.4501): 0.265 ± 0.00335 kcal/mol
- excess molar enthalpy (313.15 K, x1 = 0.5001): 0.259 ± 0.00335 kcal/mol
- excess molar enthalpy (313.15 K, x1 = 0.5501): 0.251 ± 0.00311 kcal/mol
- excess molar enthalpy (313.15 K, x1 = 0.6001): 0.236 ± 0.00311 kcal/mol
- excess molar enthalpy (313.15 K, x1 = 0.6502): 0.219 ± 0.00287 kcal/mol
- excess molar enthalpy (313.15 K, x1 = 0.7003): 0.198 ± 0.00263 kcal/mol
- excess molar enthalpy (313.15 K, x1 = 0.7505): 0.171 ± 0.0022 kcal/mol
- excess molar enthalpy (313.15 K, x1 = 0.8007): 0.144 ± 0.00186 kcal/mol
- excess molar enthalpy (313.15 K, x1 = 0.851): 0.11 ± 0.00146 kcal/mol
- excess molar enthalpy (313.15 K, x1 = 0.9013): 0.0756 ± 0.00105 kcal/mol
- excess molar enthalpy (313.15 K, x1 = 0.9496): 0.0394 ± 0.000621 kcal/mol
- excess molar enthalpy (313.15 K, x1 = 1): 0 ± 0.000239 kcal/mol

SMILES: CCCC(C)O (centres undefined) [pentan-2-ol] + Cc1ccccc1
- excess molar enthalpy (298.15 K, x1 = 0.0508): 0.149 ± 0.00198 kcal/mol
- excess molar enthalpy (298.15 K, x1 = 0.0998): 0.226 ± 0.00287 kcal/mol
- excess molar enthalpy (298.15 K, x1 = 0.151): 0.276 ± 0.00359 kcal/mol
- excess molar enthalpy (298.15 K, x1 = 0.2002): 0.31 ± 0.00382 kcal/mol
- excess molar enthalpy (298.15 K, x1 = 0.2496): 0.335 ± 0.0043 kcal/mol
- excess molar enthalpy (298.15 K, x1 = 0.3009): 0.354 ± 0.00454 kcal/mol
- excess molar enthalpy (298.15 K, x1 = 0.3506): 0.367 ± 0.00454 kcal/mol
- excess molar enthalpy (298.15 K, x1 = 0.4003): 0.373 ± 0.00478 kcal/mol
- excess molar enthalpy (298.15 K, x1 = 0.4501): 0.373 ± 0.00478 kcal/mol
- excess molar enthalpy (298.15 K, x1 = 0.5001): 0.369 ± 0.00454 kcal/mol
- excess molar enthalpy (298.15 K, x1 = 0.5501): 0.359 ± 0.00454 kcal/mol
- excess molar enthalpy (298.15 K, x1 = 0.6003): 0.344 ± 0.0043 kcal/mol
- excess molar enthalpy (298.15 K, x1 = 0.6506): 0.32 ± 0.00406 kcal/mol
- excess molar enthalpy (298.15 K, x1 = 0.701): 0.293 ± 0.00359 kcal/mol
- excess molar enthalpy (298.15 K, x1 = 0.7495): 0.259 ± 0.00335 kcal/mol
- excess molar enthalpy (298.15 K, x1 = 0.8002): 0.22 ± 0.00287 kcal/mol
- excess molar enthalpy (298.15 K, x1 = 0.8509): 0.173 ± 0.00222 kcal/mol
- excess molar enthalpy (298.15 K, x1 = 0.8996): 0.12 ± 0.00158 kcal/mol
- excess molar enthalpy (298.15 K, x1 = 0.9508): 0.0597 ± 0.000884 kcal/mol
- excess molar enthalpy (298.15 K, x1 = 1): 0 ± 0.000239 kcal/mol
- excess molar enthalpy (313.15 K, x1 = 0.0508): 0.154 ± 0.00206 kcal/mol
- excess molar enthalpy (313.15 K, x1 = 0.0999): 0.245 ± 0.00311 kcal/mol
- excess molar enthalpy (313.15 K, x1 = 0.151): 0.307 ± 0.00382 kcal/mol
- excess molar enthalpy (313.15 K, x1 = 0.2003): 0.346 ± 0.0043 kcal/mol
- excess molar enthalpy (313.15 K, x1 = 0.2496): 0.375 ± 0.00478 kcal/mol
- excess molar enthalpy (313.15 K, x1 = 0.301): 0.397 ± 0.00502 kcal/mol
- excess molar enthalpy (313.15 K, x1 = 0.3506): 0.408 ± 0.00502 kcal/mol
- excess molar enthalpy (313.15 K, x1 = 0.4003): 0.414 ± 0.00526 kcal/mol
- excess molar enthalpy (313.15 K, x1 = 0.4502): 0.414 ± 0.00526 kcal/mol
- excess molar enthalpy (313.15 K, x1 = 0.5001): 0.407 ± 0.00502 kcal/mol
- excess molar enthalpy (313.15 K, x1 = 0.5502): 0.394 ± 0.00502 kcal/mol
- excess molar enthalpy (313.15 K, x1 = 0.6003): 0.377 ± 0.00478 kcal/mol
- excess molar enthalpy (313.15 K, x1 = 0.6505): 0.353 ± 0.0043 kcal/mol
- excess molar enthalpy (313.15 K, x1 = 0.701): 0.32 ± 0.00406 kcal/mol
- excess molar enthalpy (313.15 K, x1 = 0.7495): 0.282 ± 0.00359 kcal/mol
- excess molar enthalpy (313.15 K, x1 = 0.8002): 0.239 ± 0.00311 kcal/mol
- excess molar enthalpy (313.15 K, x1 = 0.851): 0.187 ± 0.00239 kcal/mol
- excess molar enthalpy (313.15 K, x1 = 0.8998): 0.132 ± 0.00172 kcal/mol
- excess molar enthalpy (313.15 K, x1 = 0.9509): 0.0661 ± 0.000956 kcal/mol
- excess molar enthalpy (313.15 K, x1 = 1): 0 ± 0.000239 kcal/mol

SMILES: Cc1ccccc1 [toluene] + CCCC(C)O
- excess molar enthalpy (298.15 K, x2 = 0): 0 ± 0.000239 kcal/mol
- excess molar enthalpy (313.15 K, x2 = 0): 0 ± 0.000239 kcal/mol
